1 molecule from paper PMC11793105, “A kalihinol analog disrupts apicoplast function and vesicular trafficking in P. falciparum malaria” (Science (New York, N.Y.), 2024) can be followed below.

Data set [1] has as its system P. falciparum 3D7 parasites. As to the kind of experiment: Isopentenyl pyrophosphate (IPP) rescue assay. Type of data set: cell-based, Plasmodium falciparum. The note with it: drug at IC80 for one IEC before IPP (200 μM). From the text:
Fig. 2. […] Nuclei are stained with 4’,6-diamidino-2-phenylindole (DAPI; blue). […] (B) Dose-dependent interactions between MED6-189 (blue) and various antimalarials with known mechanisms of action (red). […] The regression line represents a nonlinear regression (variable slope with four parameters), with significant differences considered if P < 0.05. […] Isobologram curves are expected to be parallel to the diagonal for additive drug pairs, concave for synergistic drug pairs, and convex for antagonistic drug pairs. […] The analysis was performed using a two-way ANOVA, n = 3, with P < 0.05 significance.
IPP is a product of the MEP/DOXP pathway, and its supplementation reduces susceptibility to MEP inhibitors. […] Parasites were drugged at 80% inhibitory concentrations (IC80) for one IEC before IPP (200 μM) supplementation.

Data set [2] can be described thus: Pharmacokinetics after oral administration to P. falciparum-infected mice (Table S10). Format: in vivo, P. falciparum-infected SCID mice. The note with it: for Cmax: 50mg/kg oral in 1% Methylcellulose; for AUC(0-inf): read-out: AUCINF_obs. The procedure:
An Acquity ultra-performance liquid chromatography (UPLC) system (Waters Corp., Milford, MA, USA) couple to a triple quadrupole mass spectrometer (API 4000, AB Sciex, Foster City, CA, USA) was used for the analysis ([99]).
Blood concentration time data were analyzed by Non-Compartmental PK analysis using Phoenix WinNonlin software (Certara, NY, US) to calculate PK parameters. […]
mg/kg per day for four consecutive days. Treatment started at day 3 and finished at day 6 after infection. In all cases, parasitemia was assessed in samples from peripheral blood obtained at days 3, 4, 5, 6, and 7 after infection. Fresh samples of peripheral blood from P. falciparum-infected mice were stained with TER-119-Phycoerythrine (marker of murine erythrocytes) and SYTO-16 (nucleic acid dye) and then analyzed by flow cytometry (FACSCalibur, BD). Efficacy was determined using flow cytometry data as the percentage of Parasitemia reduction compared with […]
blood samples obtained during the 23 h period after the first dose in all mice. Peripheral blood samples (15 µL) were taken at frequent intervals, mixed with 30 µL of H2O milli Q and immediately frozen on dry ice. The frozen samples were stored at −80 °C until analysis. Vehicle-treated mice experienced the same blood-sampling regimen (table S9, S10).
Bioanalysis and pharmacokinetics analysis: LC-MS
Bioanalysis of in vivo samples: Sample pretreatment Before the analysis 15ul of blood samples were defrost at ambient temperature and mixture with 200ul of ACN:MeOH (80:20). After protein precipitation samples were filtered by 0.45um filter plate (Multiscreen Solvinert 0.45um FTPE, Millipore). The 2ul TFA (Trifluoroacetic acid, sigmaAldrich) were added to each filtered sample in order to derivatize the compound to formamide analogue. This process occurs spontaneously.
LC-MS analysis An Acquity Ultra-Performance liquid chromatography (UPLC) system (Waters Corp., Milford, MA, USA) couple to a triple quadrupole mass spectrometer (API 4000™, AB Sciex, Foster City, CA, USA) was used for the analysis. The MS/MS transition was 311.340 / […]
The chromatographic separation was carried out at 0.4ml/min in a Acquity UPLC™ BEH C18 column (50x2.1 mm i.d., […]; Waters Corp.) at 40 °C with Acetonitrile (sigmaAldrich) and 0.1% formic acid as eluents.
Pharmacokinetic analysis Blood concentration time data were analyzed by Non-Compartmental PK analysis using Phoenix WinNonlin software (Certara NY, US) to calculate PK parameters. The maximum observed concentration (Cmax) and the time to reach it (Tmax), were determined. The area under concentration-time curve from dosing at time zero to the last measured concentration […]
time (AUClast) and the total area under concentration-time curve from time zero extrapolated to infinity (AUCinf), were calculated using a linear trapezoidal rule. […]

[3] abbreviates: 50mg/kg oral, infected mice, individual mice.
[4] abbreviates: SCID, mouse, whole blood, po, 50 mg/kg, 50mg/kg oral, infected mice, Mean.
The mark [5] stands for this setting: SCID, mouse, whole blood, po, 50 mg/kg, 50mg/kg oral, infected mice, individual mice.

As usually defined, the Cmax is the highest concentration seen after dosing. Broadly, the AUC(0-t) is the area under the concentration-time curve up to a stated or last time point. The low end stands for low exposure, the high end for high exposure. What is called Tmax is the time from dosing to the highest level.

Where two headings read alike, the source gives them in different places.

As for `[C-]#[N+][C@]1(C)CC[C@H]2[C@@H]([C@@H](C(C)C)CC[C@]2(C)[N+]#[C-])[C@H]1O` [MED6-189], in data set [1], the “rescue of parasites by IPP supplementation” value was “can only be rescued by IPP for one additional cycle”. For the same molecule, the “accumulation in blood (levels at 96 hrs)” value in data set [2] (50 mg/kg oral every 24h, four days) was “no accumulation”. Further, the peak concentration (Cmax) turned out to be 8980 ng/mL in data set [2] (infected mice, individual mice 1 and 2); 7920 ng/mL in data set [2] (SCID, mouse, whole blood, po, 50 mg/kg, infected mice, Mean, read-out: Cmax); 6860 ng/mL in data set [2] (SCID, mouse, whole blood, po, 50 mg/kg, infected mice, individual mice 1 and 2, read-out: Cmax). In addition, the Tlast in data set [2] (50mg/kg oral, infected mice, Mean) was 24 h; in data set [2] (setting [3]), 24 h. Besides, the AUCINF_obs in data set [2] (setting [3]) was 115.877 µg·h/mL. This molecule also showed an AUClast in data set [2] (setting [3]) of 114.617 µg·h/mL. In addition, the AUC(0-t) in data set [2] (setting [4]) came out at 101000 ng·h/mL; in data set [2] (setting [5]), 86800 ng·h/mL. Also, the values for the AUC(0-inf) in data set [2] (setting [4]) and in data set [2] (setting [5]) were 105000 ng·h/mL and 94100 ng·h/mL, respectively. In data set [2] (SCID, mouse, whole blood, 50mg/kg oral, infected mice, individual mice), the Tmax is 7 h.
